Test results taken from patent US20240327411A1, “SIRT6 ACTIVATORS” (The Board of Regents of The University of Texas System, priority 2022, published 2024).
Where “and” joins values, the source holds several entries; their conditions need not be identical. Equal entries are not always repeated.

How the values were obtained:
Sirt6 [1] = target: T1, Sirt6 (Homo sapiens, UniProt Q8N6T7); settings: literature value, cited from earlier work
A549-hACE2 cells = test: Cell viability assay in A549-hACE2 cells; settings: 50 μM, 48 h
BV2 cells = test: LPS-induced inflammatory gene mRNA expression in BV2 cells, q-PCR; format: cell-based, murine; settings: for LPS-induced expression of IL-1β, IL-6, MCP-1, and TNFα / LPS-induced IL-1β, IL-6, and MCP-1 response / LPS-induced iNOS and CXCL10 expression / VCAM-1 induction / ICAM-1 induction: BV2 cells, 100 ng/mL LPS 6 hours, mRNA; for LPS-induced expression of IL-1β, IL-6, MCP-1, and TNFα: 30 μM pretreatment 30 minutes; for LPS-induced IL-1β, IL-6, and MCP-1 response / LPS-induced iNOS and CXCL10 expression / VCAM-1 induction / ICAM-1 induction: 30 μM; for LPS-induced proinflammatory cytokine/chemokine production: summary statement
Sirt6 [2] = target: T1, Sirt6; test: Nucleosome test: Sirt6-dependent H3K9 deacetylation of nucleosomes from HEK293T cells, Western blot; format: biochemical; settings: 100 μM, 30° C., 60 minutes
Protocol: (§1) . Nucleosomes extracted from HEK293T cells were incubated with 100 μM of selected compounds or Vehicle at 30° C. for 60 minutes. Acetylated H3K9 and total H3 were detected by Western blot. The level of acetylated H3K9 was quantified by Image Lab software. FIGS. 5B and 5C show the cell viability which was assessed by MTT assay. R28 cells were treated with 30 μM or 100 μM compounds for 24 hours. Data were presented as mean±SEM. The experiment was repeated at least three times. ***p<0.001; ****p<0.0001.
Next, effects of selected compounds were explored for Sirt6-dependent deacetylation of complete nucleosomes extracted from human embryonic kidney (HEK) 293T cells, as nucleosomes represent more physiologically relevant substrates. […]. Briefly, HEK 293T cells in 100 mm dish were lysed with lysis buffer supplemented with PIC and PMSF for 30 min. After centrifugation for 10 min at 5000 rpm at 4° C., supernatant was removed and nuclei pellet was resuspended with digestion buffer supplemented with PIC and PMSF for 5 min at 37° C. Working enzymatic sharing cocktail was added to digest the chromatin, and EDTA was added after incubation to stop the digestion. Digested nucleosome was obtained in the supernatant after centrifugation for 10 min at 15000 rpm at 4° C. and the concentration was quantified by measuring the absorbance at […]. 20 μg nucleosome was incubated in solution (1× buffer, 0.5 μL recombinant Sirt6 and […] NAD, from SIRT6 ACTIVITY ASSAY KIT) for 60 min. To test the effects of the compounds on Sirt6 activity, corresponding compound or DMSO control was added before incubation. The reaction mixture was analyzed by Western blot.
Proteins were extracted from cells with PIERCE RIPA BUFFER (89901, ThermoFisher Scientific), and protein concentration was determined using PIERCE BCA PROTEIN ASSAY KIT (23225, ThermoFisher Scientific). Equal amounts of protein were loaded and separated by SDS-PAGE gel. Next, separated proteins were transferred onto Nitrocellulose Blotting Membranes (A29457237, GE Healthcare Life science), and then the membranes were blocked by 5% non-fat dry milk. After incubation with corresponding primary antibodies against H3K9ac, H3 and Sirt6 at a 1:1000 dilution, or α-tubulin at a 1:5000 dilution, goat anti-mouse or goat anti-rabbit secondary antibodies at a 1:5000 dilution were applied. Finally, membranes were incubated with enhanced chemiluminescent and protein bands were detected by CHEMIDOC imaging system (Bio-Rad). Image-Lab software was used to analyze the intensities of the protein bands.

SARS-CoV-2 = test: microbe, parasite or virus in culture; format: cell-based
Sirt6 [3] = target: T1, Sirt6; test: Sirt6-dependent peptide deacetylation, FLUOR DE LYS / Sirt6 fluorometric activity kit; format: biochemical; settings: mean ± SD, at least two independent experiments; for Activation Fold 30 μM: compound at 30 μM; for Activation Fold 100 μM: compound at 100 μM
Protocol: Sirt6/Sirt1/Sirt2/Sirt3 activity was tested by Activity Assay Kits (Abcam) according to the manufacturer's instruction with minor modification. […] All experiments were conducted at room temperature.

[4] = test system: retinal precursor cells (R28); test: MTT cell viability assay in R28 cells; format: cell-based; settings: 30 μM, 24 hours
Protocol: as §1, with “FIGS. 5A-5C: FIGS. 5A-5C display the deacetylation effect and cytotoxicity of selected compounds. […] Nucleosomes” for “. Nucleosomes”
R28 cells were seeded in 96 well plates at a density of 1×10^4/well overnight, then treated with compounds for 24 h. MTT (MilliporeSigma) was added to cells (20 μL/well) and incubated for 3.5 h. After medium was removed, 100 μL dimethyl sulfoxide (DMSO) was added into each well. Absorbance was measured at 540 nm using a microplate reader.

T1 sequence (Q8N6T7 whole entry): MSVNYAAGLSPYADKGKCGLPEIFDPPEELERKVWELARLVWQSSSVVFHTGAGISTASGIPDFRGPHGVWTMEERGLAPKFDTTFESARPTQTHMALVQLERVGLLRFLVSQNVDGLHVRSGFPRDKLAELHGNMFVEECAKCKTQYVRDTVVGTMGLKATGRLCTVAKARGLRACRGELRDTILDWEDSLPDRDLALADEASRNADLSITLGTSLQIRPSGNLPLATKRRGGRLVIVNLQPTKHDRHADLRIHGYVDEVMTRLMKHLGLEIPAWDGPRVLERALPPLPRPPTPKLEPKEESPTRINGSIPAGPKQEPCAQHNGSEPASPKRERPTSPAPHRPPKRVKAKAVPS

O=C(O)c1ccc2c(c1)C(=O)N(c1ccc(N(C(=O)c3c(Cl)cc(Cl)cc3Cl)C(=O)c3c(Cl)cc(Cl)cc3Cl)c(Cl)c1)C2=O [CL5D]
Sirt6 activation at 3 μM (Sirt6 [1]; concentration of 3 μM): 4 fold

OC1CN(CCN2CCN(c3ncccc3C3Nc4ccccc4-n4cccc43)CC2)C1 (centres unmarked) [Compound 46, 1-(2-(4-(3-(4,5-Dihydropyrrolo[1,2-a]quinoxalin-4-yl)pyridin-2-yl)piperazin-1-yl)ethyl)azetidin-3-ol]
cytotoxicity at the highest tested concentration (A549-hACE2 cells): none of these compounds exhibited significant cytotoxicity | LPS-induced expression of IL-1β, IL-6, MCP-1, and TNFα (BV2 cells): strongly inhibited | LPS-induced IL-1β, IL-6, and MCP-1 response (BV2 cells): almost reversed | LPS-induced iNOS and CXCL10 expression (BV2 cells): significantly repressed | VCAM-1 induction (BV2 cells): obviously inhibit | LPS-induced proinflammatory cytokine/chemokine production (BV2 cells): strongly repressed | acetylation of H3K9 in the nucleosome test (Sirt6 [2]): significantly decreased the acetylation of H3K9 | potency in inhibiting SARS-CoV-2 infection (in words) (SARS-CoV-2): micromolar potency | Activation Fold 30 μM (Sirt6 [3]): 3.30 ± 0.11 fold | Activation Fold 100 μM (Sirt6 [3]): 6.30 ± 0.25 fold | toxicity on retinal precursor cells (R28) [4]: no obvious toxicity

c1ccc2c(c1)NC(c1cccnc1N1CCN(CCN3CCCC3)CC1)c1cccn1-2 (centres unmarked) [Compound 47, 4-(2-(4-(2-(Pyrrolidin-1-yl)ethyl)piperazin-1-yl)pyridin-3-yl)-4,5-dihydropyrrolo[1,2-a]quinoxaline]
LPS-induced expression of IL-1β, IL-6, MCP-1, and TNFα (BV2 cells): strongly inhibited | ICAM-1 induction (BV2 cells): slight inhibition | LPS-induced IL-1β, IL-6, and MCP-1 response (BV2 cells): almost reversed | LPS-induced iNOS and CXCL10 expression (BV2 cells): significantly repressed | VCAM-1 induction (BV2 cells): obviously inhibit | LPS-induced proinflammatory cytokine/chemokine production (BV2 cells): strongly repressed | acetylation of H3K9 in the nucleosome test (Sirt6 [2]): no effect | Activation Fold 30 μM (Sirt6 [3]): 4.80 ± 0.19 fold | Activation Fold 100 μM (Sirt6 [3]): 5.38 ± 0.29 fold | toxicity on retinal precursor cells (R28) [4]: no obvious toxicity

c1ccc2c(c1)NC(c1cccnc1N1CCN(CCn3ccnc3)CC1)c1cccn1-2 (centres unmarked) [Compound 50, 4-(2-(4-(2-(1H-Imidazol-1-yl)ethyl)piperazin-1-yl)pyridin-3-yl)-4,5-dihydropyrrolo[1,2-a]quinoxaline]
LPS-induced expression of IL-1β, IL-6, MCP-1, and TNFα (BV2 cells): strongly inhibited | ICAM-1 induction (BV2 cells): slight inhibition | LPS-induced IL-1β, IL-6, and MCP-1 response (BV2 cells): almost reversed | LPS-induced iNOS and CXCL10 expression (BV2 cells): significantly repressed | LPS-induced proinflammatory cytokine/chemokine production (BV2 cells): strongly repressed | acetylation of H3K9 in the nucleosome test (Sirt6 [2]): significantly decreased the acetylation of H3K9 | Activation Fold 30 μM (Sirt6 [3]): 3.34 ± 0.19 fold | Activation Fold 100 μM (Sirt6 [3]): 6.29 ± 0.02 fold | toxicity on retinal precursor cells (R28) [4]: no obvious toxicity

COC(=O)c1ccc2c(c1)OC(c1cccnc1N1CCN(CCN(C)C)CC1)c1cccn1-2 (centres unmarked) [Compound 71, Methyl 4-(2-(4-(2-(dimethylamino)ethyl)piperazin-1-yl)pyridin-3-yl)-4H-benzo[b]pyrrolo[1,2-d][1,4]oxazine-7-carboxylate]
Activation Fold 30 μM (Sirt6 [3]): 4.16 ± 0.18 fold | Activation Fold 100 μM (Sirt6 [3]): 4.82 ± 0.14 fold

CN(C)CCN1CCN(c2ncccc2C2Oc3cc(CO)ccc3-n3cccc32)CC1 (centres unmarked) [Compound 72, (4-(2-(4-(2-(Dimethylamino)ethyl)piperazin-1-yl)pyridin-3-yl)-4H-benzo[b]pyrrolo[1,2-d][1,4]oxazin-7-yl)methanol]
Activation Fold 30 μM (Sirt6 [3]): 1.59 ± 0.03 fold | Activation Fold 100 μM (Sirt6 [3]): 2.69 fold and 2.69 ± 0.03 fold

CN(C)CCN1CCN(c2ncccc2C2Oc3ccccc3-n3c2ccc3C(F)(F)F)CC1 (centres unmarked) [Compound 76, N,N-Dimethyl-2-(4-(3-(1-(trifluoromethyl)-4H-benzo[b]pyrrolo[1,2-d][1,4]oxazin-4-yl)pyridin-2-yl)piperazin-1-yl)ethan-1-amine]
Activation Fold 30 μM (Sirt6 [3]): 2.69 ± 0.02 fold | Activation Fold 100 μM (Sirt6 [3]): 4.20 ± 0.06 fold

CCCCCCCC/C=C\CCCCCCCC(=O)NCCO [Oleoylethanolamide]
maximum activation (Emax) of Sirt6 deacetylation (Sirt6 [1]): 2.1 fold
